From ChEMBL document CHEMBL1122982, “Conformational factors in cardiac glycoside activity” (1985)

Organism: Cavia porcellus
Experiment: Relative […] activity evaluated in guinea pig left atria.
Type: functional
For C[C@H]1O[C@H]2O[C@@H]3C[C@@H]4CC[C@@H]5[C@H](CC[C@]6(C)[C@@H](C7=CC(=O)OC7)CC[C@]56O)[C@@]4(C)C[C@H]3O[C@@]2(O)[C@@H](O)[C@H]1O, the Relative ionotropic activity was 1. Work on C[C@@H]1O[C@@H](O[C@H]2CC[C@@]3(C)[C@@H](CC[C@@H]4[C@@H]3CC[C@]3(C)[C@@H](C5=CC(=O)OC5)CC[C@@]43O)C2)C[C@H](O)[C@@H]1O yielded a Relative ionotropic activity of 15. Compound C[C@]12CC[C@H](O)C[C@H]1CC[C@@H]1[C@@H]2CC[C@]2(C)[C@@H](C3=CC(=O)OC3)CC[C@]12O (stereo in doubt) [DIGITOXIGENIN] has a Relative ionotropic activity of 1. Compound C[C@]12CC[C@H](O)C[C@H]1CC[C@@H]1[C@@H]2CC[C@]2(C)[C@@H](C3=CC(=O)OC3)CC[C@]12O (stereo in doubt; V) [DIGITOXIGENIN] has a Relative ionotropic activity of 1.2. For C[C@@H]1O[C@@H](O[C@H]2CC[C@@]3(C)[C@H](CC[C@@H]4[C@@H]3CC[C@]3(C)[C@@H](C5=CC(=O)OC5)CC[C@]43O)C2)[C@H](O)[C@H](O)[C@H]1O (stereo in doubt; X), the Relative ionotropic activity was 3. C[C@@H]1O[C@@H](O[C@H]2CC[C@@]3(C)[C@H](CC[C@@H]4[C@@H]3CC[C@]3(C)[C@@H](C5=CC(=O)OC5)CC[C@]43O)C2)[C@H](O)[C@H](O)[C@H]1O (stereo in doubt; form 1) gave a Relative ionotropic activity of 22. C[C@@H]1C[C@H](O)[C@]2(O)O[C@@H]3C[C@@]4(C)[C@@H](CC[C@@H]5[C@@H]4CC[C@]4(C)[C@@H](C6=CC(=O)OC6)CC[C@]54O)C[C@H]3O[C@@H]2O1 (stereo in doubt; form 1) [Gomphoside] was tested, and the Relative ionotropic activity was 23. Work on C[C@@H]1O[C@@H](O[C@H]2CC[C@@]3(C)[C@H](CC[C@@H]4[C@@H]3CC[C@]3(C)[C@@H](C5=CC(=O)OC5)CC[C@]43O)C2)[C@H](O)[C@H](O)[C@H]1O (stereo in doubt; form 2) yielded a Relative ionotropic activity of 9. C[C@@H]1C[C@H](O)[C@]2(O)O[C@@H]3C[C@@]4(C)[C@@H](CC[C@@H]5[C@@H]4CC[C@]4(C)[C@@H](C6=CC(=O)OC6)CC[C@]54O)C[C@H]3O[C@@H]2O1 (stereo in doubt; form 2) [Gomphoside] gave a Relative ionotropic activity of 0.2. Compound C[C@@H]1CC(=O)[C@]2(O)O[C@@H]3C[C@@]4(C)[C@@H](CC[C@@H]5[C@@H]4CC[C@]4(C)[C@@H](C6=CC(=O)OC6)CC[C@]54O)C[C@H]3O[C@@H]2O1 [Didehydro Gomphoside] has a Relative ionotropic activity of 2.5.
